Our source for the Ki values is US8815882B2, “Pyrazole aminopyrimidine derivatives as LRRK2 modulators” (Genentech, Inc., priority 2010, dated 2014).

Structures are written as SMILES.

T1 sequence (Q5S007 whole entry G2019S): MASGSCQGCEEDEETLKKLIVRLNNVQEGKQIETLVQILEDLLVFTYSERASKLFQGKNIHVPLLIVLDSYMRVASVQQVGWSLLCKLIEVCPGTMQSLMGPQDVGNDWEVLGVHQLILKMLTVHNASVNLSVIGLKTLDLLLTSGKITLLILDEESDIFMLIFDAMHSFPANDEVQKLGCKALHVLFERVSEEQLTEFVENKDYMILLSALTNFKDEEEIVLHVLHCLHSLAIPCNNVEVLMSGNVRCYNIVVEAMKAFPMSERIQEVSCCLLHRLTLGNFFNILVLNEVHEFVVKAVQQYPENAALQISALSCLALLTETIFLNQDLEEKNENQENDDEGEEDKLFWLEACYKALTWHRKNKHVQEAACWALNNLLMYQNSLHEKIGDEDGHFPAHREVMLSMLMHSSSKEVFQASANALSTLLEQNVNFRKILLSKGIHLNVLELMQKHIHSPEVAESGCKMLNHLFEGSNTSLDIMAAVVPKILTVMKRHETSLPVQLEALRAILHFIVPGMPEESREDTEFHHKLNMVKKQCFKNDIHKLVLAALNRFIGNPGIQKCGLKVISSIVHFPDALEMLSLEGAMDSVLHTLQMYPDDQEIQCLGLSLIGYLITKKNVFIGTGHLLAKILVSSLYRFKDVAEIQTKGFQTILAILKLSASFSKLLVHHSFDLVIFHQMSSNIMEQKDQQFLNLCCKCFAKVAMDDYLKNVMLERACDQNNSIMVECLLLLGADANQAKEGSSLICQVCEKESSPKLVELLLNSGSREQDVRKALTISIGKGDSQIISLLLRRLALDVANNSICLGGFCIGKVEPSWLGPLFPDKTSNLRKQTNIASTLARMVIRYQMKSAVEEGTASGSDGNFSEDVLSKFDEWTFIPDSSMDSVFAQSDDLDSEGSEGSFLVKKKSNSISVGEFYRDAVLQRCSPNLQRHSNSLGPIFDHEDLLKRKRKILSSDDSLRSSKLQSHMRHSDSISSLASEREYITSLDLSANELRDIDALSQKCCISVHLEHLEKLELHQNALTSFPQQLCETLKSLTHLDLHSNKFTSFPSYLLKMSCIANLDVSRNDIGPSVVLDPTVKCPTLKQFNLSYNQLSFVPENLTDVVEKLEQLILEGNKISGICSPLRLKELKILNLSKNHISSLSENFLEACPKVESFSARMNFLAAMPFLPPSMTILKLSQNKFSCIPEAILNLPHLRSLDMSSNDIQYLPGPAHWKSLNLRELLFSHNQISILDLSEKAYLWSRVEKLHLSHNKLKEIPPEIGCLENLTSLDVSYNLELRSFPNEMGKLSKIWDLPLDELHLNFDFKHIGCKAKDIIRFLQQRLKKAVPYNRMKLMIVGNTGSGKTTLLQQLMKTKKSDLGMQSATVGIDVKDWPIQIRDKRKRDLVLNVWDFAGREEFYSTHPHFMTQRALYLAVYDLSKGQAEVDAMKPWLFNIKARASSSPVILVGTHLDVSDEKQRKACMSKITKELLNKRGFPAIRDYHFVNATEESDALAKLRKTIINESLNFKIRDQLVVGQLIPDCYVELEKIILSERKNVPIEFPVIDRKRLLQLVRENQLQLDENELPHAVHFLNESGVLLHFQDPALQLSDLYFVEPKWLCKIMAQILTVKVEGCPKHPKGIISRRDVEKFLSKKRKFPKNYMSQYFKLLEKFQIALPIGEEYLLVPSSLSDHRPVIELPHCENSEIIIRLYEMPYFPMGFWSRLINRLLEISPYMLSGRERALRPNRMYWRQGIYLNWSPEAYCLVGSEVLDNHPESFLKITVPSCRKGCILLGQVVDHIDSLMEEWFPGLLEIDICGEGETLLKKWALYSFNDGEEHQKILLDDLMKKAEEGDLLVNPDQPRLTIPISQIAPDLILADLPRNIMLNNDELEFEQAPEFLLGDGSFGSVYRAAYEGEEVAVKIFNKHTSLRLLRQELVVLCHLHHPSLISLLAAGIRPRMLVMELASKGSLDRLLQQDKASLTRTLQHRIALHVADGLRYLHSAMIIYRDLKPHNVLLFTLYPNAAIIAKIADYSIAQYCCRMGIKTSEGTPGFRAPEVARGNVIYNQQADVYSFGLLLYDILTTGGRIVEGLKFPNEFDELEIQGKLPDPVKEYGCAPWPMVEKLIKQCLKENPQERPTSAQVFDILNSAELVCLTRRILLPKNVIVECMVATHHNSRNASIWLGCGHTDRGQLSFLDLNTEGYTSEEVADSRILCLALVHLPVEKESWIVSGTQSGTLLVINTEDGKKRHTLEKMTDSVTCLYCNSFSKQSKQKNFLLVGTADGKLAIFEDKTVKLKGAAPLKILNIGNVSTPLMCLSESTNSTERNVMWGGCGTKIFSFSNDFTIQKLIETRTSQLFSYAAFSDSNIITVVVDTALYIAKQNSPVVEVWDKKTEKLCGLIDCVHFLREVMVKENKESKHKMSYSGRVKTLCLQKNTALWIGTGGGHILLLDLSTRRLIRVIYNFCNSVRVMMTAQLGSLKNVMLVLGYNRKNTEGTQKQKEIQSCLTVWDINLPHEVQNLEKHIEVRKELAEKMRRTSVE

One assay addresses T1, LRRK2 (Homo sapiens, UniProt Q5S007, G2019S).
T1 construct: purchased Invitrogen PV4882 (lot 567054A)
In words: In Vitro LRRK2 Assay (LabChip 3000, fluorescently-labeled peptide substrate, ATP). The note with it: Table 9; LRRK2 Ki (micromolar); read-out: LRRK2 Ki (KI). The class given is biochemical. As to the method:
This assay was used to determine a compound's potency in inhibiting activity of LRRK2 by determining, Kiapp, IC50, or percent inhibition values. In a polypropylene plate, LRRK2, fluorescently-labeled peptide substrate, ATP and test compound were incubated together. Using a LabChip 3000 (Caliper Life Sciences), after the reaction the substrate was separated by capillary electrophoresis into two populations: phosphorylated and unphosphorylated. The relative amounts of each were quantitated by fluorescence intensity. LRRK2 Ki was determined according to the equation: Y=V0*(1−(x+Ki*(1+S/Km)+Et)/(2*Et)−(((x+Ki*(1+S/Km)+Et)^2−(4*Et*x))^0.5)/(2*Et))). Ki values in Table 4 and elsewhere herein are shown in μM.
Assay conditions and materials used were as follows:
Compound Plate Preparation:
For serial dilutions, 34.6 μl DMSO was added to columns 3-24.
Total and Blank Preparation:
In Complete Reaction Buffer, substrate was diluted to 4 μM. Equal volumes of Complete Reaction Buffer and 4 μM substrate were combined to obtain the blank. Equal volumes of Complete Reaction Buffer and 4 μM substrate were combined and to the combined solution was added 2× final LRRK2 concentration.
To a 50 μl polypropylene plate, 5 μl/well buffer/substrate was added by hand to Blank wells. A Biomek FX was used to start the kinase reaction (“PLK SAR 23 ATP”). The following were added to the appropriate wells:
5 μl/well compound/ATP in Assay Plate;
5 μl/well kinase/substrate in Assay Plate;
The plate was incubated for 2 hours in the dark. Biomek FX was used to stop the kinase reaction (“PLK Stop”), and 10 μl/well Stop solution was added to the Assay Plate. Results were read on the LabChip 3000.
The LabChip 3000 was run using the job “LRRK2 IC50” with the following job settings: […]
For orientation: Ki means the equilibrium dissociation constant of an inhibitor or competing ligand from its target. In the case of `CNc1nc(Nc2cn(C)nc2C)ncc1C#N` [Example 350, 2-(1,3-Dimethyl-1H-pyrazol-4-ylamino)-4-methylamino-pyrimidine-5-carbonitrile], the Ki amounted to 29 nM.

In the case of `CCNc1nc(Nc2cn(C3COC3)nc2C)ncc1C#N` [Example 373, 4-(ethylamino)-2-(3-methyl-1-(oxetan-3-yl)-1H-pyrazol-4-ylamino) pyrimidine-5-carbonitrile], the inhibition constant (Ki) is 22.8 nM.

The same assay, now with this note: Table 10; LRRK2 Ki (micromolar); read-out: LRRK2 Ki (KI).
On to `CNc1nc(Nc2cn([C@@H](C)C(=O)N(C)C)nc2C)ncc1C(F)(F)F` [Example 436, (S)-N,N-Dimethyl-2-[3-methyl-4-(4-methylamino-5-trifluoromethyl-pyrimidin-2-ylamino)-pyrazol-1-yl]-propionamide], for which the Ki stood at 30.3 nM.

Take `CNc1nc(Nc2cnn(C3(C#N)CC3)c2Cl)ncc1C(F)(F)F` [Example 422, 1-(5-chloro-4-(4-(methylamino)-5-(trifluoromethyl)pyrimidin-2-ylamino)-1H-pyrazol-1-yl)cyclopropane-carbonitrile]: the Ki was determined as 2.3 nM.

Consider `CNc1nc(Nc2cn(C(C)(C)C(=O)OC)nc2C)ncc1C(F)(F)F` [Example 408, methyl 2-methyl-2-(3-methyl-4-(4-(methylamino)-5-(trifluoromethyl)pyrimidin-2-ylamino)-1H-pyrazol-1-yl)propanoate], for which the Ki was determined as 4.7 nM.

Consider `CNc1nc(Nc2cnn([C@H](C)C(=O)N(C)C)c2C)ncc1C(F)(F)F` [Example 412, (R)-N,N-dimethyl-2-(5-methyl-4-(4-(methylamino)-5-(trifluoromethyl)pyrimidin-2-ylamino)-1H-pyrazol-1-yl)propanamide], for which the Ki was determined as 28.4 nM.

In the case of `CCNc1nc(Nc2cn(C(C)(C)C#N)nc2C)ncc1C(F)(F)F` [Example 451, 2-[4-(4-Ethylamino-5-trifluoromethyl-pyrimidin-2-ylamino)-3-methyl-pyrazol-1-yl]-2-methyl-propionitrile], the Ki amounted to 0.3 nM.

The same assay, now with this note: read-out: LRRK2 Ki (KI), Table 7.
`COc1nc(Nc2cnn(C3CCN(C(=O)C4(C)CC4)CC3)c2C)ncc1Cl` [Example 67, (4-(4-(5-chloro-4-methoxy-pyrimidin-2-ylamino)-5-methyl-1H-pyrazol-1-yl)piperidin-1-yl)(1-methylcyclo-propyl) methanone]: the Ki is 89 nM.

`COc1nc(Nc2cn(C3CCN(CCF)CC3)nc2C)ncc1Cl` [Example 86, (5-Chloro-4-methoxy-pyrimidin-2-yl)-{1-[1-(2-fluoro-ethyl)-piperidin-4-yl]-3-methyl-1H-pyrazol-4-yl}-amine]: the Ki stood at 183 nM.

With `CNc1nc(Nc2cc(C(C)C)nn2C)ncc1Cl` [Example 42, 5-Chloro-N^2-(5-isopropyl-2-methyl-2H-pyrazol-3-yl)-N^4-methyl-pyrimidine-2,4-diamine], the Ki was 16 nM.

Turning to `COc1nc(Nc2cn(-c3ccncc3C)nc2C)ncc1Cl` [Example 69, 5-chloro-4-methoxy-N-(3-methyl-1-(3-methylpyridin-4-yl)-1H-pyrazol-4-yl)pyrimidin-2-amine], the Ki stood at 55 nM.

The assay is the same for the next values; noted with them: read-out: LRRK2 Ki (KI), Table 8.
As for `CCNc1nc(Nc2ccnn2C)ncc1C(F)(F)F` [Example 176, N4-ethyl-N2-(1-methyl-1H-pyrazol-5-yl)-5-(trifluoromethyl) pyrimidine-2,4-diamine], the Ki was 11 nM.

As to `CCNc1nc(Nc2cn(C(C)(C)c3ccn(C)n3)nc2C)ncc1C(F)(F)F` [Example 342, N4-ethyl-N2-(3-methyl-1-(2-(1-methyl-1H-pyrazol-3-yl)propan-2-yl)-1H-pyrazol-4-yl)-5-(trifluoromethyl) pyrimidine-2,4-diamine], the Ki was determined as 21.7 nM.

For `CCS(=O)(=O)n1ncc(Nc2ncc(C(F)(F)F)c(NC)n2)c1C` [Example 287, N2-(1-Ethanesulfonyl-5-methyl-1H-pyrazol-4-yl)-N4-methyl-5-trifluoromethyl-pyrimidine-2,4-diamine], the Ki was found to be 7.2 nM.

With `CCNc1nc(Nc2cn(S(=O)(=O)C3CC3)nc2C)ncc1C(F)(F)F` [Example 171, N2-(1-(cyclopropyl-sulfonyl)-3-methyl-1H-pyrazol-4-yl)-N4-ethyl-5-(trifluoromethyl) pyrimidine-2,4-diamine], the inhibition constant Ki is 0.9 nM.

In the case of `CNc1nc(Nc2cn(-c3ccc(C(=O)N(C)C)cc3)nc2C)ncc1C(F)(F)F` [Example 164, N,N-dimethyl-4-(3-methyl-4-(4-(methylamino)-5-(trifluoromethyl)pyrimidin-2-ylamino)-1H-pyrazol-1-yl)benzamide], the inhibition constant Ki was determined as 5.7 nM.

For `CNc1nc(Nc2cnn(C3CC(C)OC(C)C3)c2C)ncc1C(F)(F)F` (stereo not shown) [Example 272, N2-[1-(2,6-Dimethyl-tetrahydro-pyran-4-yl)-5-methyl-1H-pyrazol-4-yl]-N4-methyl-5-trifluoromethyl-pyrimidine-2,4-diamine], the inhibition constant (Ki) turned out to be 5.1 nM.

Consider `CNc1nc(Nc2cn(-c3cncnc3)nc2C)ncc1C(F)(F)F` [Example 140, N4-methyl-N2-(3-methyl-1-(pyrimidin-5-yl)-1H-pyrazol-4-yl)-5-(trifluoromethyl) pyrimidine-2,4-diamine], for which the inhibition constant Ki was 6.1 nM.

Turning to `CNc1nc(Nc2cnn(-c3ccnc(C)c3)c2C)ncc1C(F)(F)F` [Example 142, N4-methyl-N2-(5-methyl-1-(2-methylpyridin-4-yl)-1H-pyrazol-4-yl)-5-(trifluoromethyl) pyrimidine-2,4-diamine], the inhibitory constant (Ki) came out at 0.3 nM.

Take `CNc1nc(Nc2cnn([C@H](C)COC)c2C)ncc1C(F)(F)F` [Example 205, (R)-N2-(1-(1-methoxypropan-2-yl)-5-methyl-1H-pyrazol-4-yl)-N4-methyl-5-(trifluoromethyl) pyrimidine-2,4-diamine]: the Ki was 19 nM.

For `CCNc1nc(Nc2cn(C3CCC(=O)NC3)nc2C)ncc1C(F)(F)F` (stereo not shown) [Example 262, 5-[4-(4-Ethylamino-5-trifluoromethyl-pyrimidin-2-ylamino)-3-methyl-pyrazol-1-yl]-piperidin-2-one], the Ki turned out to be 1.3 nM.

`CCNc1nc(Nc2cn(C(C)(C)c3nnc(C)[nH]3)nc2C)ncc1C(F)(F)F` [Example 331, N4-Ethyl-N2-{3-methyl-1-[1-methyl-1-(5-methyl-4H-[1,2,4]triazol-3-yl)-ethyl]-1H-pyrazol-4-yl}-5-trifluoromethyl-pyrimidine-2,4-diamine]: the Ki came out at 0.8 nM.

In the case of `CNc1nc(Nc2cnn(CC3CC3)c2Cl)ncc1C(F)(F)F` [Example 146, N2-(5-chloro-1-(cyclopropyl-methyl)-1H-pyrazol-4-yl)-N4-methyl-5-(trifluoromethyl) pyrimidine-2,4-diamine], the Ki came out at 0.3 nM.

Consider `CCCn1cc(Nc2ncc(Br)c(NC)n2)c(C)n1` [Example 113, 5-bromo-N4-methyl-N2-(3-methyl-1-propyl-1H-pyrazol-4-yl)pyrimidine-2,4-diamine], for which the Ki was found to be 12 nM.

`CNc1nc(Nc2cnn(-c3ccc(C(=O)N(C)C)cc3)c2C)ncc1C(F)(F)F` [Example 156, N,N-dimethyl-4-(5-methyl-4-(4-(methylamino)-5-(trifluoromethyl)pyrimidin-2-ylamino)-1H-pyrazol-1-yl)benzamide]: the Ki was determined as 0.3 nM.

`CNc1nc(Nc2cn(C3CCN(C(=O)C4CC4)CC3)nc2C)ncc1C(F)(F)F` [Example 136, cyclopropyl(4-(3-methyl-4-(4-(methylamino)-5-(trifluoromethyl)pyrimidin-2-ylamino)-1H-pyrazol-1-yl)piperidin-1-yl)methanone]: the Ki came to 9.3 nM.

For the compound `CNc1nc(Nc2cn(C3CCN(CC(F)(F)F)CC3)nc2C)ncc1C(F)(F)F` [Example 92, N4-methyl-N2-(3-methyl-1-(1-(2,2,2-trifluoroethyl)piperidin-4-yl)-1H-pyrazol-4-yl)-5-(trifluoromethyl) pyrimidine-2,4-diamine], the Ki turned out to be 46 nM.

Take `CNc1nc(Nc2cn(C(C)(C)COC)nc2C)ncc1C(F)(F)F` [Example 190, N2-(1-(1-methoxy-2-methylpropan-2-yl)-3-methyl-1H-pyrazol-4-yl)-N4-methyl-5-(trifluoromethyl) pyrimidine-2,4-diamine]: the Ki was 6.9 nM.

Turning to `CCNc1nc(Nc2cnn(S(=O)(=O)CC)c2C)ncc1C(F)(F)F` [Example 244, N4-ethyl-N2-(1-(ethylsulfonyl)-5-methyl-1H-pyrazol-4-yl)-5-(trifluoromethyl) pyrimidine-2,4-diamine], the Ki came out at 4.7 nM.

For the compound `CNc1nc(Nc2cnn(C(F)F)c2C)ncc1C(F)(F)F` [Example 106, N2-(1-(difluoromethyl)-5-methyl-1H-pyrazol-4-yl)-N4-methyl-5-(trifluoromethyl) pyrimidine-2,4-diamine], the Ki turned out to be 1.9 nM.

For the compound `CNc1nc(Nc2cn(S(=O)(=O)C(C)C)nc2C)ncc1C(F)(F)F` [Example 217, N2-(1-(isopropylsulfonyl)-3-methyl-1H-pyrazol-4-yl)-N4-methyl-5-(trifluoromethyl) pyrimidine-2,4-diamine], the Ki was 9.9 nM.
